From patent publication US10035795B1, “Phenothiazine derivatives having CaM inhibitory activity” (KOREA INSTITUTE OF SCIENCE AND TECHNOLOGY, priority 2017, dated 2018)

tested on: cancer cells; assay: matrigel invasion assay; assay type: cell-based; conditions: not given
Source text: (§1) TFP is a phenothiazine-based compound mainly used as an antipsychotic [see patent document 1]. Antipsychotics are psychiatric drugs primarily used to manage psychosis such as schizophrenia, bipolar disorder, etc. and also to manage non-psychiatric disorder such as sleep. The antipsychotics tend to block receptors in the brain's dopamine pathways but cover a wide range of drug targets. […] Based on this, cell viability assay, matrigel invasion assay, colony formation assay and soft agar colony formation assay were conducted to investigate whether TFP suppresses lung cancer.

| SMILES | invasion of cancer cells |
| --- | --- |
| CN1CCN(CCCN2c3ccccc3Sc3ccc(C(F)(F)F)cc32)CC1 [TFP, trifluoperazine] | inhibits the invasion of cancer cells |

tested on: lung cancer; assay: cell viability assay, colony formation assay and soft agar colony formation assay; assay type: cell-based; conditions: not given
Source text: as §1

| SMILES | migration and proliferation of lung cancer |
| --- | --- |
| CN1CCN(CCCN2c3ccccc3Sc3ccc(C(F)(F)F)cc32)CC1 [TFP, trifluoperazine] | suppresses the migration and proliferation of lung cancer |

tested on: U87MG cells; assay: Calcium imaging (Ca2+ imaging): change in the calcium level of the cells, Fura-2 340/380 ratio; assay type: cell-based; conditions: 100 μM in HEPES buffer, average 340/380 ratio reactivity for 200 seconds relative to TFP (trifluoperazine) as 100%
Protocol: Calcium Imaging (Ca^2+ Imaging)
Calcium imaging was conducted as follows in order to measure the change in the calcium level in […] (glioblastoma cells) by TFP (trifluoperazine) and the phenothiazine derivative represented by Chemical Formula 1 according to the present invention. First, after placing a polylysine (PDL)-coated coverslip on a 24-well plate, 2×10^4 U87MG cells detached by treating with trypsin were seeded thereupon. On the next day, the coverslip was incubated at room temperature for 1 hour in a Fura-2 solution (5 μM Fura-2 AM, 1 μM pluronic acid in HEPES buffer, pH 7.4) and washed twice with a HEPES buffer (10 mM HEPES, 150 mM NaCl, 3 mM KCl, 2 mM CaCl2, 1 mM MgCl2, 22 mM sucrose, 10 mM glucose, pH 7.4). The washed coverslip was mounted in a bath adapter (bath adapter) and placed under a calcium imaging microscope (Olympus IX71). After connecting a bath line to the bath adapter, the change in the calcium level of the cells was recorded for 300 seconds (4-second intervals; 340 nm, 380 nm, 340/380 nm ratio) by running a calcium imaging program (Imaging Workbench 6.0, Indec Inc.). After flowing a HEPES buffer for 50 seconds for setting of the baseline, a TFP (trifluoperazine) solution or solution of the phenothiazine derivative represented by Chemical Formula 1 (100 μM in HEPES buffer) were flown as test solutions for 100 seconds and then a HEPES buffer was flown again for 150 seconds. All the test solutions were prepared by diluting a 50 mM stock solution to 100 μM with a HEPES buffer. For analysis of the change of intracellular calcium level by the phenothiazine derivative represented by Chemical Formula 1, data files were read using a calcium imaging analysis program (Clampfit 9.2, Axon Inc.) and only the 340/380 ratio values were taken. The values recorded for the first 50 seconds were set to “0” and graphs were rearranged. Then, the average reactivity to the phenothiazine derivative represented by Chemical Formula 1 for 200 seconds was calculated relative to the average reactivity to TFP (trifluoperazine) for 200 seconds as 100%.

| SMILES | Reactivity (%) |
| --- | --- |
| FC(F)(F)c1ccc2c(c1)N(CCCCN1CCC(N3CCOCC3)CC1)c1ccccc1S2 [Example 41, 4-(1-(4-(2-(trifluoromethyl)-10H-phenothiazine;-10-yl)butyl)piperidin-4-yl)morpholine] | 120% |
| FC(F)(F)c1ccc2c(c1)N(CCCCN1CCC(N3CCCC3)CC1)c1ccccc1S2 [Example 42, 10-(4-(4-(pyrrolidin-1-yl)piperidin-1-yl)butyl)-2-(trifluoromethyl)-10H-phenothiazine] | 134% |
| FC(F)(F)c1ccc2c(c1)N(CCCCN1CCC(N3CCCCC3)CC1)c1ccccc1S2 [Example 43, 10-(4-(1,4′-bipiperidin-1′-yl)butyl)-2-(trifluoromethyl)-10H-phenothiazine] | 123% |
| CSc1ccc2c(c1)N(CCCCN1CCC(N3CCCC3)CC1)c1ccccc1S2 [Example 52, 2-(methylthio)-10-(4-(4-(pyrrolidin-1-yl)piperidin-1-yl)butyl)-10H-phenothiazine] | 150% |
| CSc1ccc2c(c1)N(CCCN1CCC(N3CCCC3)CC1)c1ccccc1S2 [Example 55, 2-(methylthio)-10-(3-(4-(pyrrolidin-1-yl)piperidin-1-yl)propyl)-10H-phenothiazine] | 114% |
| Clc1ccc2c(c1)N(CCCN1CCC(N3CCCCC3)CC1)c1ccccc1S2 [Example 69, 10-(3-(1,4′-bipiperidin-1′-yl)propyl)-2-chloro-10H-phenothiazine] | 124% |
| CSc1ccc2c(c1)N(CCCCN1CCC(N3CCCCC3)CC1)c1ccccc1S2 [Example 72, 10-(4-(1,4′-bipiperidin-1′-yl)butyl)-2-(methylthio)-10H-phenothiazine] | 131% |
| CC1CCN(CCCCN2c3ccccc3Sc3ccc(F)cc32)CC1 [Example 76, 2-fluoro-10-(4-(4-methylpiperidin-1-yl)butyl)-10H-phenothiazine] | 110% |
| Fc1ccc2c(c1)N(CCCCN1CCC(N3CCCC3)CC1)c1ccccc1S2 [Example 77, 2-fluoro-10-(4-(4-(pyrrolidin-1-yl)piperidin-1-yl)butyl)-10H-phenothiazine] | 149% |
| CN1CCN(CCCN2c3ccccc3Sc3ccc(C(F)(F)F)cc32)CC1 [TFP, trifluoperazine] | 100% |
